Results from PMC7483518, “Destabilizing single chain major histocompatibility complex class I protein for repurposed enterokinase proteolysis” (Scientific Reports, 2020).
Read-outs that look alike come from different tables or passages of the source.

Experiments:
[1] = target: photolabile unchained HLA-A*11:01 pMHC-I protein (Homo sapiens, UniProt P04439, A114D/D185E/E176A/F33Y/L180Q/S129P/T187R); test: ELISA with photolabile unchained pMHC-I protein and UV irradiation; type: binding; conditions: for ELISA450nm: Table 2, 62.5 nM photolabile pMHC-I mixture, 5 μM peptide in PBS, UV 365 nm 2 × 5 min on ice, 2 h room temperature on anti-β2m plate, Abs450nm − Abs570nm, instability cutoff < 0.6
[2] = tested on: HLA-A*11:01 single chain protein; type: biochemical, Human; set-up: EZ50kDa / EZ50kD (pH 6.2) / EZ50kD (pH 8) / EZ50kD (normalised: EBV1101 = 1, EBV0201 = 0) / EZ50kDa rank: unit not given beside the values; conditions: for EZ50kDa rank: HLA-A*11:01 single chain protein, 9-mer peptides;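 on EZ50kD (pH 6.2): scaled with positive control peptide as 1 and negative control peptide as 0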
[3] = EASY MHC-I A*11:01, 2019-07-25, mean of the 2 replicates
[4] = Table 2, pH 6.2, 37 °C, enterokinase, Eq. (4), instability cutoff < 0.3
[5] = EASY MHC-I A*11:01, gel 2019-07-17 lr1028-1036 5min, mean of 2 replicates
[6] = EASY MHC-I A*11:01, gel 2019-07-17 lr1028-1036 5min, replicate 1 (lanes 1-14)
[7] = EASY MHC-I A*11:01, gel 2019-07-17 lr1028-1036 5min, replicate 2 (lanes 15-28)

Compound: Nc1nc(Nc2ccc3c(c2)CC[C@@H](N2CCCC2)CC3)nn1-c1cc2c(nn1)-c1ccccc1CCC2 [CS1046]
- EASY_mean ([1]; […], mean, STDEV): -0.001122

Compound: AIKTSPKA [EX1001]
- EASY_mean [1]: -0.01453
- EZ_mean [2]: -0.04572

Compound: AIKTSPKAN [EX1006]
- EASY_mean ([1]; […], mean, STDEV): 0.003202
- EZ_mean [2, 3]: -0.02264

Compound: AIKTSPKANK [EX1012, EGFR exon 19 deletion-derived peptide]
- EASY_mean ([1]; […], mean, STDEV): 0.01176
- EZ_mean [2, 3]: -0.007078

Compound: AIKTSPKANKE [EX1019]
- EASY_mean ([1]; […], mean, STDEV): 0.001081
- EZ_mean ([2]; EASY MHC-I A*11:01, 2019-07-26, mean of the 2 replicates): -0.09791

Compound: AIKTSPKANKEI [EX1027]
- EASY_mean [1]: -0.02114
- EZ_mean ([2]; EASY MHC-I A*11:01, 2019-08-01, mean of the 2 replicates): -0.13

Compound: AINSEMFLR [reference compound]
- EZ50kDa rank ([2]; pH 6.2, 37 °C): 0.901
- EZ50kD (pH 6.2) ([2]; pH 6.2): 0.9012
- EZ50kD (pH 8) [2]: 1.19

Compound: ATVLMGLGK [reference compound]
- ELISA450nm [1]: 1.911
- EZ50kD (pH 6.2) [2, 4]: 1.039

Compound: ATVQGQNLK [reference compound]
- EZ50kD (pH 6.2) ([2]; pH 6.2): 0.8968
- EZ50kD (pH 8) [2]: 0.767

Compound: ATYGWNLVK [reference compound]
- EZ50kD (pH 6.2) ([2]; pH 6.2): 0.8706
- EZ50kD (pH 8) [2]: 1.994

Compound: AVQTKPGLFK [reference compound]
- EZ50kD (pH 6.2) ([2]; pH 6.2): 0.955
- EZ50kD (pH 8) [2]: 1.546

Compound: CLTSTVQLIM [TM1018]
- EASY_mean ([1]; […], mean, STDEV): 0.01464
- EZ_mean ([2]; EASY MHC-I A*11:01, run 2019-08-07, 5min, mean of 2 replicates): -0.01698

Compound: CLTSTVQLIMQ [TM1029]
- EASY_mean ([1]; ELISA signal, mean, […]): -0.0718
- EZ_mean [2]: -0.1239

Compound: CLTSTVQLIMQL [TM1040]
- EASY_mean ([1]; ELISA signal, mean, […]): -0.0545
- EZ_mean [2]: -0.1197

Compound: DFGRAKLL [LR1005]
- EASY_mean ([1]; ELISA signal, mean, […]): -0.01718
- EZ_mean [2]: -0.05649

Compound: DFGRAKLLG [LR1014]
- EASY_mean ([1]; ELISA signal, mean, […]): -0.02793
- EZ_mean [2]: -0.05414

Compound: DFGRAKLLGA [LR1024]
- EASY_mean ([1]; ELISA signal, mean, […]): -0.02296
- EZ_mean [2]: -0.06389

Compound: DFGRAKLLGAE [LR1035]
- EASY_mean [1]: -0.05461
- EZ_mean [2, 5]: -0.0623
- EZ50kD (normalised: EBV1101 = 1, EBV0201 = 0) [2, 6]: -0.08387
- Norm (50 kDa band adj. volume normalised: Undig_37C = 1, Dig_37C = 0) [2, 6]: -0.0751
- EZ50kD (normalised: EBV1101 = 1, EBV0201 = 0) [2, 7]: -0.04073
- Norm (50 kDa band adj. volume normalised: Undig_37C = 1, Dig_37C = 0) [2, 7]: -0.03413

Compound: DFGRAKLLGAEE [LR1047]
- EASY_mean [1]: -0.01199
- EZ_mean [2]: -0.04163

Compound: DLAQCFFCFK [reference compound]
- ELISA450nm [1]: 0.3956

Compound: FGRAKLLG [LR1006]
- EASY_mean ([1]; ELISA signal, mean, […]): -0.01563
- EZ_mean [2]: -0.05388

Compound: FGRAKLLGA [LR1015]
- EASY_mean ([1]; […], mean, STDEV): -0.02405
- EZ_mean [2]: -0.04617

Compound: FGRAKLLGAE [LR1025]
- EASY_mean ([1]; ELISA signal, mean, […]): -0.01153
- EZ_mean [2]: -0.04476

Compound: FGRAKLLGAEE [LR1036]
- EASY_mean [1]: -0.04853
- EZ_mean [2, 5]: -0.05281
- EZ50kD (normalised: EBV1101 = 1, EBV0201 = 0) [2, 6]: -0.07114
- Norm (50 kDa band adj. volume normalised: Undig_37C = 1, Dig_37C = 0) [2, 6]: -0.06733
- EZ50kD (normalised: EBV1101 = 1, EBV0201 = 0) [2, 7]: -0.03448
- Norm (50 kDa band adj. volume normalised: Undig_37C = 1, Dig_37C = 0) [2, 7]: -0.02973

Compound: FGRAKLLGAEEK [LR1048]
- EASY_mean [1]: -0.01082
- EZ_mean [2]: -0.03879

Compound: FGSLLDYV [CS1006]
- EASY_mean [1]: -0.03548
- EZ_mean [2]: -0.06948

Compound: FGSLLDYVR [CS1015]
- EASY_mean [1]: -0.01602
- EZ_mean [2]: -0.05849

Compound: FGSLLDYVRE [CS1025]
- EASY_mean [1]: 0.005114
- EZ_mean [2]: -0.05956

Compound: FGSLLDYVREH [CS1036]
- EASY_mean [1]: 0.0933
- EZ_mean [2]: 0.04199
- EZ50kDa ([2]; Table 3, EGFR peptide library (n = 177, duplicated), pH 6.2, 37 °C, 14 h, enterokinase, Eq. (4)): 0.0420 ± 0.010

Compound: FIDSYICQV [reference compound]
- ELISA450nm [1]: 0.3491

Compound: FLLTKILTI [reference compound]
- ELISA450nm [1]: 0.1791

Compound: FTNDSIISH [reference compound]
- EZ50kDa rank ([2]; pH 6.2, 37 °C): 0.696
- EZ50kD (pH 6.2) ([2]; pH 6.2): 0.6961
- EZ50kD (pH 8) [2]: 0.1339

Compound: GAMLFLISGK [reference compound]
- EZ50kD (pH 6.2) ([2]; pH 6.2): 0.7468
- EZ50kD (pH 8) [2]: 1.036

Compound: GLSPTVWLSA [reference compound]
- ELISA450nm [1]: 0.2488

Compound: GSLLDYVREH [CS1026]
- EASY_mean [1]: -0.04117

Compound: GSLLDYVREHKD [CS1049]
- EASY_mean [1]: -0.02126

Compound: KFLPDLYDYK [reference compound]
- ELISA450nm [1]: 0.4809

Compound: KSGAIKVLK [reference compound]
- EZ50kD (pH 6.2) ([2]; pH 6.2): 0.819
- EZ50kD (pH 8) [2]: 0.4865

Compound: KTFVDLMRR [reference compound]
- EZ50kD (pH 6.2) ([2]; pH 6.2): 0.8241
- EZ50kD (pH 8) [2]: 0.165

Compound: LLAQFTSAL [putative peptide, HBV, no IEDB entry]
- ELISA450nm [1]: 0.214

Compound: LMPFGSLLDYVR [CS1045]
- EASY_mean [1]: 0.002285

Compound: LNIDLLWSV [reference compound]
- ELISA450nm [1]: 0.2738

Compound: LVSFLLLAGR [reference compound]
- EZ50kD (pH 8) [2]: 0.07206

Compound: LVVDFSQFSR [reference compound]
- EZ50kD (pH 6.2) [2, 4]: 0.9461

Compound: MANEMGFLEK [reference compound]
- EZ50kD (pH 6.2) ([2]; pH 6.2): 0.527

Compound: MATYGWNLVK [reference compound]
- EZ50kD (pH 6.2) ([2]; pH 6.2): 0.6384
- EZ50kD (pH 8) [2]: 0.007553

Compound: MSYTMCSGK [reference compound]
- EZ50kDa rank ([2]; pH 6.2, 37 °C): 1.198
- EZ50kD (pH 6.2) ([2]; pH 6.2): 1.198
- EZ50kD (pH 8) [2]: 1.094

Compound: MVSRLLLNR [reference compound]
- EZ50kD (pH 6.2) ([2]; pH 6.2): 1.196
- EZ50kD (pH 8) [2]: 0.2396

Compound: MVWESGCTV [IEDB 140,054, Human; a known HLA-A*02:01 antigen, reference compound]
- ELISA450nm [1]: 0.5937

Compound: NILNPFLPLL [putative peptide, HBV, no IEDB entry]
- ELISA450nm [1]: 0.2827

Compound: PFGSLLDYVRE [CS1035]
- EASY_mean [1]: -0.00332

Compound: PFGSLLDYVREH [CS1047]
- EASY_mean [1]: -0.01054

Compound: RSQSPRRR [putative peptide, HBV, no IEDB entry]
- ELISA450nm [1]: 0.1859

Compound: RTLSPRRR [putative peptide, Streptomyces sp, no IEDB entry]
- ELISA450nm [1]: 0.1209

Compound: RTLSPRRRR [putative peptide, HBV, no IEDB entry]
- ELISA450nm [1]: 0.8658

Compound: RTQSPRRR [reference compound]
- ELISA450nm [1]: 0.3319

Compound: RTQSPRRRR [reference compound]
- ELISA450nm [1]: 1.204

Compound: STLPETTVIR [putative peptide, HBV, no IEDB entry]
- ELISA450nm [1]: 1.302

Compound: SVQPTFSVQR [reference compound]
- EZ50kD (pH 6.2) ([2]; pH 6.2): 1.051
- EZ50kD (pH 8) [2]: 0.7376

Compound: TLALEVAQQK [reference compound]
- EZ50kD (pH 6.2) ([2]; pH 6.2): 0.7399
- EZ50kD (pH 8) [2]: 0.4517

Compound: TMVMELIRMIK [reference compound]
- ELISA450nm [1]: 0.748

Compound: TSGSPIIDK [reference compound]
- EZ50kDa rank ([2]; pH 6.2, 37 °C): 0.795
- EZ50kD (pH 6.2) ([2]; pH 6.2): 0.7953
- EZ50kD (pH 8) [2]: 0.1596

Compound: TTKRDLGMSK [reference compound]
- EZ50kD (pH 6.2) ([2]; pH 6.2): 0.796
- EZ50kD (pH 8) [2]: 0.3796

Compound: TTYLGPLSCK [reference compound]
- EZ50kD (pH 6.2) ([2]; pH 6.2): 1.084
- EZ50kD (pH 8) [2]: 1.911

Compound: TVIRRRGR [reference compound]
- ELISA450nm [1]: 0.1482

Compound: TVVGRRGRSPR [putative peptide, HBV, no IEDB entry]
- ELISA450nm [1]: 1.259

Compound: TVVRRRCR [putative peptide, HBV, no IEDB entry]
- ELISA450nm [1]: 0.4625

Compound: TVVRRRCRSPR [putative peptide, HBV, no IEDB entry]
- ELISA450nm [1]: 0.4145

Compound: VTRGAVLMHK [reference compound]
- EZ50kD (pH 6.2) ([2]; pH 6.2): 0.6228

Compound: YVSAIAQTEK [reference compound]
- EZ50kD (pH 6.2) ([2]; pH 6.2): 0.3037
